Consider seven compounds from patent US20240209028A1, “CNP COMPOUNDS” (priority 2022, published 2024).

Molecules are shown by their SMILES. Starred links: 1 amine or outer side, 2 acyl side, 3 side chain; linkers in the order of their positions; H or OH if unused. Positions of bridges follow the written chain, without caps; N, C: chain ends. Residues, ends and D or L forms follow the SMILES beside them. *: point of attachment. C18 diacid = O=C(O)CCCCCCCCCCCCCCCCC(=O)*; γGlu = O=C(O)[C@H](CCC(=O)[*:2])N[*:1]; AEEA = NCCOCCOCC(=O)O

Data set [1] can be described thus: Thioflavin T (ThT) assay: lagtime and peptide recovery. Type of data set: physicochemical. The conditions noted are these: assay terminated after 45 hours; for LagTime (h) at pH 4.0: ThT, 37° C., shaking; for LagTime (h) at pH 6.5: ThT assay, pH 6.5, 37° C. The gist of the method:
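ThT (final about 1 μM) was added to peptide supernatants at pH 4.0 and 6.5 and incubated at 37 °C with orbital shaking for 45 h. Fluorescence (ex 444/em 485 nm) was read every 20 min, and lag-time was taken as the time to onset of signal rise. Recovery is the RP-UPLC (215 nm) total peak area after vs. before incubation.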

Data set [2] is described as follows: High-Molecular-Weight-Protein (HMWP) formation by SEC-UPLC. The format is physicochemical. To be noted: increase over two weeks at 37° C. In short, it runs like this: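 Formulations at pH 4.0 or 6.5 incubated quiescently for two weeks at 37 °C; HMWP (peaks eluting before monomer, % of total peptide area) measured by SEC-UPLC, pH 2.4 mobile phase with 50% isopropanol, 50 °C, UV 215 nm. Value is HMWP increase, normalized to two weeks if needed.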

For `CC[C@H](C)[C@@H]1NC(=O)[C@H](CCCNC(=N)N)NC(=O)[C@H](CC(=O)O)NC(=O)[C@H](CC(C)C)NC(=O)[C@@H]2CCCN2C(=O)[C@H](CC(C)C)NC(=O)CNC(=O)[C@H](Cc2ccccc2)NC(=O)[C@@H](NC(=O)CNC(=O)[C@H](CCCCN)NC(=O)[C@H](CO)NC(=O)[C@H](CC(C)C)NC(=O)CNC(=O)[C@H](CCCCN)NC(=O)[C@H](CCCCN)NC(=O)[C@H](CCC(N)=O)NC(=O)[C@H](C)NC(=O)CNC(=O)[C@H](CCCCN)NC(=O)[C@H](Cc2ccc(O)cc2)NC(=O)[C@H](CCCCN)NC(=O)[C@H](CCCNC(=N)N)NC(=O)[C@H](C)NC(=O)[C@H](CCC(N)=O)NC(=O)[C@@H]2CCCN2C(=O)[C@H](Cc2c[nH]cn2)NC(=O)[C@H](CCC(=O)O)NC(=O)[C@H](CCC(N)=O)NC(=O)COCCOCCNC(=O)COCCOCCNC(=O)CC[C@H](NC(=O)CC[C@H](NC(=O)CC[C@H](NC(=O)CC[C@H](NC(=O)CC[C@H](NC(=O)CCCCCCCCCCCCCCCCC(=O)O)C(=O)O)C(=O)O)C(=O)O)C(=O)O)C(=O)O)CSSC[C@@H](C(=O)O)NC(=O)CNC(=O)[C@H](CC(C)C)NC(=O)CNC(=O)[C@H](CO)NC(=O)[C@H](CC(C)C)NC(=O)[C@H](CO)NC(=O)CNC1=O` [compound 1474] ({C18 diacid-γGlu-γGlu-γGlu-γGlu-γGlu-AEEA-AEEA}-QEHPQARKYKGAQKKGLSKGCFGLPLDRIGSLSGLGC-OH; disulfide 21-37; C-terminus assumed), in data set [1], the “LagTime (h) at pH 4.0” value is recorded as 45 h. For the same compound, the “2-Week HMWP formation at pH 4.0 (%), % relative to total peak area” value in data set [2] is on record as 1.6%.

On to `CC[C@H](C)[C@@H]1NC(=O)[C@H](CCCNC(=N)N)NC(=O)[C@H](CCC(=O)O)NC(=O)[C@H](CC(C)C)NC(=O)[C@@H]2CCCN2C(=O)[C@H](CC(C)C)NC(=O)CNC(=O)[C@H](Cc2ccccc2)NC(=O)[C@@H](NC(=O)CNC(=O)[C@H](CCC(N)=O)NC(=O)[C@H](CO)NC(=O)[C@H](CC(C)C)NC(=O)CNC(=O)[C@H](CCCCN)NC(=O)[C@H](CCCCN)NC(=O)[C@H](CCC(N)=O)NC(=O)[C@H](C)NC(=O)CNC(=O)[C@H](CCCCN)NC(=O)[C@H](Cc2ccc(O)cc2)NC(=O)[C@H](CCCCN)NC(=O)[C@H](CCCNC(=N)N)NC(=O)[C@H](C)NC(=O)COCCOCCNC(=O)COCCOCCNC(=O)COCCOCCNC(=O)COCCOCCNC(=O)CC[C@H](NC(=O)CC[C@H](NC(=O)CC[C@H](NC(=O)CC[C@H](NC(=O)CC[C@H](NC(=O)CCCCCCCCCCCCCCCCC(=O)O)C(=O)O)C(=O)O)C(=O)O)C(=O)O)C(=O)O)CSSC[C@@H](C(=O)O)NC(=O)CNC(=O)[C@H](CC(C)C)NC(=O)CNC(=O)[C@H](CO)NC(=O)[C@H](CC(C)C)NC(=O)[C@H](CO)NC(=O)CNC1=O` [compound 1477] ({C18 diacid-γGlu-γGlu-γGlu-γGlu-γGlu-AEEA-AEEA-AEEA-AEEA}-ARKYKGAQKKGLSQGCFGLPLERIGSLSGLGC-OH; disulfide 16-32), for which the “LagTime (h) at pH 6.5” value in data set [1] was found to be 23 h. In data set [2], the “2-Week HMWP formation at pH 6.5 (%), % relative to total peak area” value stood at 1.83%.

On to `CC[C@H](C)[C@@H]1NC(=O)[C@H](CCCNC(=N)N)NC(=O)[C@H](CC(=O)O)NC(=O)[C@H](CC(C)C)NC(=O)[C@@H]2CCCN2C(=O)[C@H](CC(C)C)NC(=O)CNC(=O)[C@H](Cc2ccccc2)NC(=O)[C@@H](NC(=O)CNC(=O)[C@H](CCC(N)=O)NC(=O)[C@H](CO)NC(=O)[C@H](CC(C)C)NC(=O)CNC(=O)[C@H](CCCCN)NC(=O)[C@H](CCCCN)NC(=O)[C@H](CCC(N)=O)NC(=O)[C@H](C)NC(=O)CNC(=O)[C@H](CCCCN)NC(=O)[C@H](Cc2ccc(O)cc2)NC(=O)COCCOCCNC(=O)COCCOCCNC(=O)COCCOCCNC(=O)COCCOCCNC(=O)CC[C@H](NC(=O)CC[C@H](NC(=O)CCCCCCCCCCCCCCCCC(=O)O)C(=O)O)C(=O)O)CSSC[C@@H](C(=O)O)NC(=O)CNC(=O)[C@H](CC(C)C)NC(=O)CNC(=O)[C@H](CO)NC(=O)[C@H](CC(C)C)NC(=O)[C@H](CO)NC(=O)CNC1=O` [compound 1478] ({C18 diacid-γGlu-γGlu-AEEA-AEEA-AEEA-AEEA}-YKGAQKKGLSQGCFGLPLDRIGSLSGLGC-OH; disulfide 13-29; C-terminus assumed), for which, in data set [1], the “LagTime (h) at pH 6.5” value is on record as 45 h and the “LagTime (h) at pH 4.0” value is recorded as 0.33 h. For the same compound, the “2-Week HMWP formation at pH 4.0 (%), % relative to total peak area” value in data set [2] stood at 1.98%.

As for `CC[C@H](C)[C@@H]1NC(=O)[C@H](CCCNC(=N)N)NC(=O)[C@H](CCC(=O)O)NC(=O)[C@H](CC(C)C)NC(=O)[C@@H]2CCCN2C(=O)[C@H](CC(C)C)NC(=O)CNC(=O)[C@H](Cc2ccccc2)NC(=O)[C@@H](NC(=O)CNC(=O)[C@H](CCC(N)=O)NC(=O)[C@H](CO)NC(=O)CNC(=O)CNC(=O)[C@H](CCCCN)NC(=O)[C@H](CCCCN)NC(=O)[C@H](CCC(N)=O)NC(=O)[C@H](C)NC(=O)CNC(=O)[C@H](CCCCN)NC(=O)[C@H](Cc2ccc(O)cc2)NC(=O)COCCOCCNC(=O)COCCOCCNC(=O)COCCOCCNC(=O)COCCOCCNC(=O)CC[C@H](NC(=O)CC[C@H](NC(=O)CCCCCCCCCCCCCCCCC(=O)O)C(=O)O)C(=O)O)CSSC[C@@H](C(=O)O)NC(=O)CNC(=O)[C@H](CC(C)C)NC(=O)CNC(=O)[C@H](CO)NC(=O)[C@H](CC(C)C)NC(=O)[C@H](CO)NC(=O)CNC1=O` [compound 1489] ({C18 diacid-γGlu-γGlu-AEEA-AEEA-AEEA-AEEA}-YKGAQKKGGSQGCFGLPLERIGSLSGLGC-OH; disulfide 13-29), the “LagTime (h) at pH 4.0” value in data set [1] amounted to 45 h. In data set [2], the “2-Week HMWP formation at pH 4.0 (%), % relative to total peak area” value is 2.12%.

With `CC[C@H](C)[C@@H]1NC(=O)[C@H](CCCNC(=N)N)NC(=O)[C@H](CC(=O)O)NC(=O)[C@H](CC(C)C)NC(=O)[C@@H]2CCCN2C(=O)[C@H](CC(C)C)NC(=O)CNC(=O)[C@H](Cc2ccccc2)NC(=O)[C@@H](NC(=O)CNC(=O)[C@H](CCC(N)=O)NC(=O)[C@H](CO)NC(=O)[C@H](CO)NC(=O)CNC(=O)[C@H](CCCCN)NC(=O)[C@H](CCCCN)NC(=O)[C@H](CCC(N)=O)NC(=O)[C@H](C)NC(=O)CNC(=O)[C@@H]2CCCN2C(=O)[C@H](C)NC(=O)[C@H](CCC(N)=O)NC(=O)CNC(=O)COCCOCCNC(=O)COCCOCCNC(=O)CC[C@H](NC(=O)CCCCCCCCCCCCCCCCC(=O)O)C(=O)O)CSSC[C@@H](C(=O)O)NC(=O)CNC(=O)[C@H](CC(C)C)NC(=O)CNC(=O)[C@H](CO)NC(=O)[C@H](CC(C)C)NC(=O)[C@H](CO)NC(=O)CNC1=O` [compound 9384] ({C18 diacid-γGlu-AEEA-AEEA}-GQAPGAQKKGSSQGCFGLPLDRIGSLSGLGC-OH; disulfide 15-31; C-terminus assumed), the “LagTime (h) at pH 6.5” value in data set [1] was found to be 45 h. Moreover, the “2-Week HMWP formation at pH 6.5 (%), % relative to total peak area” value in data set [2] was found to be 1.5%.

`CC[C@H](C)[C@@H]1NC(=O)[C@H](CCCNC(=N)N)NC(=O)[C@H](CC(=O)O)NC(=O)[C@H](CC(C)C)NC(=O)[C@@H]2CCCN2C(=O)[C@H](CC(C)C)NC(=O)CNC(=O)[C@H](Cc2ccccc2)NC(=O)[C@@H](NC(=O)CNC(=O)[C@H](CCC(N)=O)NC(=O)[C@H](CO)NC(=O)[C@H](CC(C)C)NC(=O)CNC(=O)[C@H](CCCCN)NC(=O)[C@H](CCCCN)NC(=O)[C@H](CCC(N)=O)NC(=O)[C@H](C)NC(=O)CNC(=O)[C@H](CCCCN)NC(=O)[C@H](Cc2ccc(O)cc2)NC(=O)[C@H](CCCCN)NC(=O)[C@H](CCCNC(=N)N)NC(=O)[C@H](C)NC(=O)COCCOCCNC(=O)COCCOCCNC(=O)COCCOCCNC(=O)COCCOCCNC(=O)CC[C@H](NC(=O)CC[C@H](NC(=O)CC[C@H](NC(=O)CC[C@H](NC(=O)CC[C@H](NC(=O)CCCCCCCCCCCCCCCCC(=O)O)C(=O)O)C(=O)O)C(=O)O)C(=O)O)C(=O)O)CSSC[C@@H](C(=O)O)NC(=O)CNC(=O)[C@H](CC(C)C)NC(=O)CNC(=O)[C@H](CO)NC(=O)[C@H](CC(C)C)NC(=O)[C@H](CO)NC(=O)CNC1=O` [compound 9407] ({C18 diacid-γGlu-γGlu-γGlu-γGlu-γGlu-AEEA-AEEA-AEEA-AEEA}-ARKYKGAQKKGLSQGCFGLPLDRIGSLSGLGC-OH; disulfide 16-32): in data set [1], the “LagTime (h) at pH 6.5” value was 45 h. Also, the “2-Week HMWP formation at pH 6.5 (%), % relative to total peak area” value in data set [2] turned out to be 12%.

`CC[C@H](C)[C@@H]1NC(=O)[C@H](CCCNC(=N)N)NC(=O)[C@H](CC(=O)O)NC(=O)[C@H](CC(C)C)NC(=O)[C@@H]2CCCN2C(=O)[C@H](CC(C)C)NC(=O)CNC(=O)[C@H](Cc2ccccc2)NC(=O)[C@@H](NC(=O)CNC(=O)[C@H](CCC(N)=O)NC(=O)[C@H](CO)NC(=O)CNC(=O)CNC(=O)[C@H](CCCCN)NC(=O)[C@H](CCCCN)NC(=O)[C@H](CCC(N)=O)NC(=O)[C@H](C)NC(=O)CNC(=O)[C@H](CCCCN)NC(=O)[C@H](Cc2ccc(O)cc2)NC(=O)COCCOCCNC(=O)COCCOCCNC(=O)COCCOCCNC(=O)COCCOCCNC(=O)CC[C@H](NC(=O)CC[C@H](NC(=O)CCCCCCCCCCCCCCCCC(=O)O)C(=O)O)C(=O)O)CSSC[C@@H](C(=O)O)NC(=O)CNC(=O)[C@H](CC(C)C)NC(=O)CNC(=O)[C@H](CO)NC(=O)[C@H](CC(C)C)NC(=O)[C@H](CO)NC(=O)CNC1=O` [compound 9435] ({C18 diacid-γGlu-γGlu-AEEA-AEEA-AEEA-AEEA}-YKGAQKKGGSQGCFGLPLDRIGSLSGLGC-OH; disulfide 13-29; C-terminus assumed): in data set [1], the “LagTime (h) at pH 6.5” value was found to be 45 h and the “LagTime (h) at pH 4.0” value amounted to 45 h. Besides, in data set [2], the “2-Week HMWP formation at pH 4.0 (%), % relative to total peak area” value was 1.07% and the “2-Week HMWP formation at pH 6.5 (%), % relative to total peak area” value was found to be 1.93%.
